“Also recorded” adds a separate entry of the source. Read-outs that look alike come from different tables or passages of the source.
Tests used:
HCoV-229E [1] = type: cell-based, human coronavirus 229E
HCoV-229E [2] = type: cell-based, human coronavirus 229E; remark: listed apart in the source
[3] = tested on: persistently HEV-infected A549 cells; conditions: 2 nM, 72 h
SARS-CoV-2 [4] = type: cell-based, severe acute respiratory syndrome coronavirus 2
SARS-CoV-2 [5] = type: cell-based, severe acute respiratory syndrome coronavirus 2; remark: listed apart in the source
LASV = test: microbe, parasite or virus in culture; type: cell-based, Lassa mammarenavirus; conditions: for EC50: Mammarenavirus lassaense, Hepatocyte, in Mus musculus
SARS-CoV-2 [6] = test: Immunofluorescence of viral dsRNA in SARS-CoV-2-infected Vero E6 cells; type: cell-based, severe acute respiratory syndrome coronavirus 2; conditions: Vero E6, MOI 1, 24 h p.i.
SARS-CoV-2 [7] = test: microbe, parasite or virus in culture; type: cell-based, severe acute respiratory syndrome coronavirus 2
[8] = tested on: eIF4A-dependent translation; test: cells; type: cell-based; conditions: for inhibition at 0.01 µM: read-out: inhibition of translation of the (AG)15 construct
CCHFV = test: microbe, parasite or virus in culture; type: cell-based, Crimean-Congo hemorrhagic fever virus; conditions: for EC50: Orthonairovirus haemorrhagiae, Hepatocyte, in Mus musculus
HEV = type: cell-based, hepatitis E virus
HCoV-229E [9] = test: Immunofluorescence of nsp8 and dsRNA in HCoV-229E-infected MRC-5 cells; type: cell-based, human coronavirus 229E; conditions: MRC-5, MOI 1, 24 hpi
NHBE cells = test: Cytotoxicity in differentiated NHBE cells by light microscopy; type: cell-based, human; conditions: 100 nM
HCoV-229E [10] = conditions: Müller et al. [2020]; read-out: EC50 reported previously for HCoV-229E; cited from earlier work
MERS-CoV [11] = conditions: read-out: EC50 reported previously for MERS-CoV; cited from earlier work
HCoV-229E [12] = type: cell-based, human coronavirus 229E; remark: listed apart in the source
murine hepatocytes = conditions: for CC50: mouse
ZIKV = test: Antiviral activity against ZIKV (strain 976 Uganda) in A549 cells, intracellular ZIKV genomes by qRT-PCR; type: cell-based; conditions: Zika virus
MERS-CoV [13] = test: microbe, parasite or virus in culture; type: cell-based, Middle East respiratory syndrome coronavirus
HCoV-229E [14] = test: microbe, parasite or virus in culture; type: cell-based, human coronavirus 229E
A549 cells = conditions: human
tumor growth = conditions: xenograft mouse model; cited from earlier work
[15] = mice, cited from earlier work
[16] = Middle East respiratory syndrome-related coronavirus, MRC5

Compound: CONC(=O)[C@@H]1[C@H](O)[C@]2(O)c3c(OC)cc(OC)cc3O[C@]2(c2ccc(OC)cc2)[C@H]1c1ccccc1 [CR-31-B (+)]
- cytotoxicity (in words) (MRC-5 cells): no major cytotoxicity
- infectious virus production (HCoV-229E [1]): did not significantly reduce viral replication
- Coronavirus N-protein levels (HCoV-229E [2]): no detectable effect
- reduction of cell viability [3]: no major cytotoxic effects
- Viral nucleocapsid (N) protein levels (SARS-CoV-2 [4]): not affected
- SARS-CoV-2 replication / titers (SARS-CoV-2 [5]): did not affect viral replication
- antiviral activity against LASV and CCHFV (in words) (LASV): no antiviral effects

Compound: CONC(=O)[C@H]1[C@@H](O)[C@@]2(O)c3c(OC)cc(OC)cc3O[C@@]2(c2ccc(OC)cc2)[C@@H]1c1ccccc1 [CR-31-B (−)]
- replicative organelles active in viral RNA synthesis (dsRNA) (SARS-CoV-2 [6]): profound reduction
- cytotoxicity (in words) (MRC-5 cells): no major cytotoxicity
- CC50 (MRC-5 cells; human): > 5 µM
- reduction of cell viability (MRC-5 cells; human): 10-25%
- selectivity index (CC50/EC50) (SARS-CoV-2 [7]): > 50
- EC50 (SARS-CoV-2 [7]; Severe acute respiratory syndrome coronavirus 2, Vero C1008, 24 h): ~1.8 nM
- infectious virus production (HCoV-229E [1]): undetectable levels
- reduction of virus titer in the supernatant (HCoV-229E [1]): about 1.5 orders of magnitude
- Coronavirus N-protein levels (HCoV-229E [2]): strongly reduced
- reduction of cell viability [3]: no major cytotoxic effects
- induction of luciferase activity [8]: 1.5 fold
- reporter activity, VP35-HP only [8]: about twofold
- reporter activity, VP35-HP+(AG)5 [8]: reduced back to basic levels
- sensitivity of translation, EBOV VP35 5′-UTR [8]: insensitive
- sensitivity to eIF4A-dependent translation inhibition, 5′-UTRs of SARS-CoV-2, HCoV-229E and MERS-CoV [8]: similarly sensitive
- sensitivity to translation inhibition, 5′-UTRs of HCoV-229E, MERS-CoV and EBOV VP30 [8]: similarly sensitive
- sensitivity, HEVgt3c-Purine 5′-UTR [8]: became sensitive
- inhibition at 0.01 µM [8]: ~80%
- virus titer drop, CCHFV-infected cells (CCHFV): ~3 log
- EC50 (CCHFV): 20 nM
- antiviral effect on extracellular HEV RNA levels (HEV): slightly weaker; also recorded: some antiviral activity
- formation of viral replication/transcription complexes (HCoV-229E [9]): reduced
- cytotoxicity (in words) (Vero E6 cells): No major cytotoxicity
- cell viability reduced by (Vero E6 cells; African green monkey): 10-25%
- cytotoxicity by light microscopy (NHBE cells): No obvious cytotoxicity
- EC50 (HCoV-229E [10]): 2.88 nM
- EC50 (MERS-CoV [11]): 1.87 nM
- genomic and subgenomic RNA levels of HCoV-229E (HCoV-229E [12]): reduced
- cytotoxicity (in words) (murine hepatocytes): no detectable cytotoxicity
- CC50 (murine hepatocytes): > 5 µM
- EC50 (ZIKV; A549 cells, MOI 0.1, ZIKV genomes by qRT-PCR, 24 hpi, read-out: EC50): 1.13 nM
- Viral nucleocapsid (N) protein levels (SARS-CoV-2 [4]): drastically reduced; also recorded: moderately reduced
- EC50 (MERS-CoV [13]): 1.87 nM
- MERS-CoV titer reduction (MERS-CoV [13]): about 5 log phases
- EC50 (MERS-CoV [13]; [16]): 2.09 nM
- SARS-CoV-2 replication / titers (SARS-CoV-2 [5]): undetectable levels
- reduction of SARS-CoV-2 titers (SARS-CoV-2 [5]): about 4 logs
- reduction of production of infectious virus progeny (SARS-CoV-2 [5]): approximately 1.5 log steps
- antiviral activity against LASV and CCHFV (in words) (LASV): potent antiviral activity
- virus titer drop, LASV-infected cells (LASV): approximately 4 log
- EC50 (LASV): 36.1 nM
- EC50 (LASV; read-out: EC50 values): 20 to 50 nM
- EC50 (HCoV-229E [14]): 2.88 nM
- EC50 (HCoV-229E [14]; Human coronavirus 229E, MRC5): 3.49 nM

Compound: COC(=O)[C@H]1[C@@H](O)[C@@]2(O)c3c(OC)cc(O[C@@H]4O[C@@H]([C@H](O)CO)CO[C@H]4OC)cc3O[C@@]2(c2ccc(OC)cc2)[C@@H]1c1ccccc1 [Silvestrol, methyl(1R,2R,3S,3aR,8bS)-6-[[(2S,3R,6R)-6-[(1R)-1,2-dihydroxyethyl]-3-methoxy-1,4-dioxan-2-yl]oxy]-1,8b-dihydroxy-8-methoxy-3a-(4-methoxyphenyl)-3-phenyl-2,3-dihydro-1H-cyclopenta[b][1]benzofuran-2-carboxylate, reference compound]
- CC50 (MRC-5 cells; human): > 10 µM
- infectious virus production (HCoV-229E [1]): undetectable levels
- reduction of virus titer in the supernatant (HCoV-229E [1]): similar
- induction of luciferase activity [8]: 1.5 fold
- inhibitory effect, destabilized HEV 5′-UTR hairpin [8]: gradual loss of the inhibitory effect
- luciferase activity, HEVgt3c 5′-UTR [8]: reduced luciferase activity
- reporter activity, VP35-HP only [8]: sufficient to mediate translation inhibition
- reporter activity, VP35-HP+(AG)5 [8]: slightly increased translation inhibition
- sensitivity of translation, EBOV VP35 5′-UTR [8]: sensitive
- sensitivity to translation inhibition, 5′-UTRs of HCoV-229E, MERS-CoV and EBOV VP30 [8]: similarly sensitive
- sensitivity, HEVgt3c-Purine 5′-UTR [8]: became sensitive
- inhibition at 0.01 µM [8]: ~55%
- virus titer drop, CCHFV-infected cells (CCHFV): ~3 log
- EC50 (CCHFV): 28.5 nM
- antiviral effect on extracellular HEV RNA levels (HEV): antiviral activity
- CC50 (A549 cells): 9.42 nM
- tumor growth (tumor growth): reduced tumor growth efficiently
- cytotoxicity (in words) (murine hepatocytes): no detectable cytotoxicity
- CC50 (murine hepatocytes): > 5 µM
- EC50 (ZIKV; A549): 1.08 nM
- EC50 (MERS-CoV [13]; [16]): 1.3 nM
- SARS-CoV-2 replication / titers (SARS-CoV-2 [5]): completely abolished
- antiviral activity against LASV and CCHFV (in words) (LASV): potent antiviral activity
- virus titer drop, LASV-infected cells (LASV): approximately 4 log
- EC50 (LASV): 50.7 nM
- EC50 (LASV; read-out: EC50 values): 20 to 50 nM
- EC50 (HCoV-229E [14]; Human coronavirus 229E, MRC5): 3 nM

Compound: CR-31-B
- cytotoxic effects (in words) (MRC-5 cells): no major cytotoxic effects
- reduction of cell viability [3]: not cytotoxic
- tumor growth (tumor growth): reduced tumor growth efficiently
- serum levels of aminotransferases (ALT and AST), albumin, total bilirubin, creatinine ([15]; two weeks after cessation of treatment): not significantly changed
- body weight, number of blood cells [15]: did not change
- toxicity in the gastrointestinal tract [15]: no toxicity could be observed
